Measured values: ChEMBL document CHEMBL1201862, “PubChem BioAssay data set” (2004)
The source made the active and inactive calls.

Key:
[1] = target: ATP-dependent translocase ABCB1 (Homo sapiens, UniProt P08183); experiment: ABCB1 efflux inhibition concentration-response, dose response, Jurkat-DNR cells, JC-1, flow cytometry, follow-up (AID 489002); format: functional
[2] = HEK293T cell cytotoxicity, dose response, cytotoxicity control, luminescence plate reader, powder samples, set 4 (AID 651863); format: functional, cell-based; details: HEK293
[3] = inhibitors of intracellular T. cruzi replication, confirmation, NIH3T3 host cells, beta-gal luminescence (AID 2044); format: functional, cell-based;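 note: intracellular parasites grown in NIH/3T3 mouse fibroblasts as host cells; luminescent beta-galactosidase reporter signal from transgenic T. cruzi replicating inside host cells; inhibitors lower the luminescence signal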
[4] = target: T1, Methionyl-tRNA synthetase, putative (Trypanosoma brucei brucei, UniProt Q38C91); format: functional, Trypanosoma brucei brucei strain 927/4 GUTat10.1
T1 sequence (Q38C91 whole entry): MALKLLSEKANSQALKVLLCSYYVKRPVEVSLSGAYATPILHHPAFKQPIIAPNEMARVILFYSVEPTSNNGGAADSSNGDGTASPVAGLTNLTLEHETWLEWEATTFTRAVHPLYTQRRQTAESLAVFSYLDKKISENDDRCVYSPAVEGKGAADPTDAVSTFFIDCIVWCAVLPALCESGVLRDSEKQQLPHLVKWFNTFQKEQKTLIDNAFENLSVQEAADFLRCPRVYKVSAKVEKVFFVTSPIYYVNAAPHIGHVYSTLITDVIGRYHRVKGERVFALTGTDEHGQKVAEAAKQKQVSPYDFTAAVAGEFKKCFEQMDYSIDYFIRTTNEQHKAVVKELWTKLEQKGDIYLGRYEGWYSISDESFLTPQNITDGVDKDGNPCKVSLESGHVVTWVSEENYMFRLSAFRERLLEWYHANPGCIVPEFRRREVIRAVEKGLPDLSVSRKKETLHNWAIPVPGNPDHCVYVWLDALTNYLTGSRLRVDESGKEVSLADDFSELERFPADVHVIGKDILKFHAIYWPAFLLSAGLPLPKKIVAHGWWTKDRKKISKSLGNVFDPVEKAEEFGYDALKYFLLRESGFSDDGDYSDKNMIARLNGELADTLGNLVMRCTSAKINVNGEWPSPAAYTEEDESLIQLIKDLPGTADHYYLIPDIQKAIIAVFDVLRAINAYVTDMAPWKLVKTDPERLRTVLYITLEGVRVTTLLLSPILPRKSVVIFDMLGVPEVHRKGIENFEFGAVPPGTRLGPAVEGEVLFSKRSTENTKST

[5] = target: Disintegrin and metalloproteinase domain-containing protein 17 (Homo sapiens, UniProt P78536); experiment: ADAM17 protease inhibitors, dose response, counter-screen for ADAM10 exosite inhibitor project, biochemical, quenched FRET substrate (AID 743253)
[6] = target: T1, Methionyl-tRNA synthetase, putative; format: functional, Trypanosoma brucei brucei strain 927/4 GUTat10.1; remark: listed apart in the source
[7] = cytotoxicity toward NIH3T3 fibroblasts, dose response, counter-screen, cell-based, ATP luminescence, mouse fibroblasts (AID 2010); format: functional;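 note: cells exposed to compound for about 90 hours before reading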
[8] = Counterscreen for inhibitors of Trypanosoma brucei methionyl tRNA synthetase (MetRS): Luminescence-based cell-based high throughput dose response assay to identify compounds that are cytotoxic to Jurkat human T lymphocyte cells.; format: functional
[9] = ADAM10 inhibitors, peptide cleavage, dose response, biochemical, QFRET (AID 743254);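 note: ADAM10 enzyme with the DM2 quenched FRET peptide as substrate; EDANS fluorescence gain as the protease cuts the substrate; inhibitor potency against ADAM10 proteolytic activity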
[10] = cytotoxicity dependent on PAX8, dose response, cell-based, plate reader, dry powder (AID 743049); format: functional
[11] = cytotoxicity in COV362 ovarian cancer cells, dose response, cytotoxicity control for PAX8 inhibitor project, cell-based, plate reader, dry powder, SA12 (AID 743144); format: functional
[12] = cytotoxicity in COV434 cells, dose response, cytotoxicity control for PAX8 inhibitor project, cell-based, plate reader, dry powder, SA7 (AID 743145); format: functional
[13] = NIH:OVCAR-3 ovarian cancer cell cytotoxicity, dose response, PAX8 inhibitor project, plate reader, dry powder samples (AID 743044); format: functional, cell-based
[14] = cytotoxicity in OV-90 ovarian cancer cells, dose response, PAX8 inhibitor project, cell-based, plate reader, dry powder, SA8 (AID 743149); format: functional
[15] = PAX2 cell-based inhibition, dose response, selectivity assay for PAX8 inhibitor project, plate reader, dry powder samples (AID 743048); format: functional;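 note: HEK293 cells carrying a WT1 promoter luciferase reporter driven by expressed Pax2; potency is for inhibition of Pax2 driven reporter signal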
[16] = IOSE-T80 ovarian epithelial cell cytotoxicity, dose response, cytotoxicity control for PAX8 inhibitor project, plate reader, dry powder samples (AID 743045); format: functional, cell-based
[17] = cytotoxicity in OVCAR4 cells, dose response, cytotoxicity control for PAX8 inhibitor project, cell-based, plate reader, dry powder, SA11 (AID 743150); format: functional; details: OVCAR-4
[18] = IGROV1 ovarian cancer cell cytotoxicity, dose response, PAX8 inhibitor project, plate reader, dry powder samples (AID 743043); format: functional, cell-based; details: IGROV-1
[19] = PAX5 activity inhibitors, dose response, selectivity assay for PAX8 inhibitor project, cell-based, plate reader, dry powder samples (AID 743047); format: functional;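 note: HEK293 cells carrying a Pax5 driven CD19 promoter luciferase reporter; potency of inhibitors that lower reporter luminescence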
Paired box protein Pax-8 = Paired box protein Pax-8 (Homo sapiens, UniProt Q06710); experiment: inhibitors of PAX8-driven TPO luciferase reporter, dose response, RMG-I cells, cherry-pick (AID 687027); format: functional, cell-based;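 note: luciferase reporter driven by Pax8 target thyroperoxidase promoter measured by SteadyGlo luminescence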
[20] = HEK293T cytotoxicity, dose response, cytotoxicity control for miR-122 modulator project, cell-based, inhibitor set, cherry-pick, set 2 (AID 720697); format: functional
[21] = AlphaScreen signal interference by compounds, dose response, artefact control for ARNT/TACC3 disruptor project, biochemical, dual-tagged ARNT, dry powder (AID 720564)
[22] = HeLa cell cytotoxicity, dose response, cytotoxicity control, CellTiter-Glo luminescence, dry powder, set 2 (AID 720593); format: functional, cell-based
[23] = HepG2 cell cytotoxicity, dose response, cytotoxicity control, CellTiter-Glo luminescence, cherry-pick, set 2 (AID 743395); format: functional
BJ = experiment: cytotoxicity toward Ras-transformed BJeLR fibroblasts, dose response, cell-based, alamar blue fluorescence, cherrypicked samples (AID 2631); format: functional; details: Homo sapiens;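 note: confirmatory dose-response assay in RAS-dependent BJ fibroblasts engineered with TERT, LT and ST, with cytotoxicity read by fluorescence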
Fatty acid synthase = Fatty acid synthase (Homo sapiens, UniProt P49327); experiment: FAS thioesterase domain inhibitors, SAR follow-up, biochemical, endpoint fluorescence intensity, powder samples (AID 652164); format: functional
[24] = A Cell-Based Confirmatory Screen for Compounds that Inhibit VEEV, TC-83 (3).; format: functional

Sequence of Paired box protein Pax-8 (Q06710 whole entry): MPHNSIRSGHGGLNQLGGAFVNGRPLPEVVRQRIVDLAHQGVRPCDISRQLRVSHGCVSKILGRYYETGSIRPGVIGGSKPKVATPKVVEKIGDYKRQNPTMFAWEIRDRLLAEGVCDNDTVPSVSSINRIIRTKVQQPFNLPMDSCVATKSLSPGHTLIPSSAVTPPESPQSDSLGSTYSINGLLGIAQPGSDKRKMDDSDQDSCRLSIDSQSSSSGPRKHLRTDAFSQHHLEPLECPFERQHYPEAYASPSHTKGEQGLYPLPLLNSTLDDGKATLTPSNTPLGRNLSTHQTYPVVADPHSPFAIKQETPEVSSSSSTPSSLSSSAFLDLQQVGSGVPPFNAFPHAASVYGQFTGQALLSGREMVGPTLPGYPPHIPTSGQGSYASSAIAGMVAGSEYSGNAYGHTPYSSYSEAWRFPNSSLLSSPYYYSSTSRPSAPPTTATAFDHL
Sequence of Disintegrin and metalloproteinase domain-containing protein 17 (P78536 whole entry, the tested form may be a part): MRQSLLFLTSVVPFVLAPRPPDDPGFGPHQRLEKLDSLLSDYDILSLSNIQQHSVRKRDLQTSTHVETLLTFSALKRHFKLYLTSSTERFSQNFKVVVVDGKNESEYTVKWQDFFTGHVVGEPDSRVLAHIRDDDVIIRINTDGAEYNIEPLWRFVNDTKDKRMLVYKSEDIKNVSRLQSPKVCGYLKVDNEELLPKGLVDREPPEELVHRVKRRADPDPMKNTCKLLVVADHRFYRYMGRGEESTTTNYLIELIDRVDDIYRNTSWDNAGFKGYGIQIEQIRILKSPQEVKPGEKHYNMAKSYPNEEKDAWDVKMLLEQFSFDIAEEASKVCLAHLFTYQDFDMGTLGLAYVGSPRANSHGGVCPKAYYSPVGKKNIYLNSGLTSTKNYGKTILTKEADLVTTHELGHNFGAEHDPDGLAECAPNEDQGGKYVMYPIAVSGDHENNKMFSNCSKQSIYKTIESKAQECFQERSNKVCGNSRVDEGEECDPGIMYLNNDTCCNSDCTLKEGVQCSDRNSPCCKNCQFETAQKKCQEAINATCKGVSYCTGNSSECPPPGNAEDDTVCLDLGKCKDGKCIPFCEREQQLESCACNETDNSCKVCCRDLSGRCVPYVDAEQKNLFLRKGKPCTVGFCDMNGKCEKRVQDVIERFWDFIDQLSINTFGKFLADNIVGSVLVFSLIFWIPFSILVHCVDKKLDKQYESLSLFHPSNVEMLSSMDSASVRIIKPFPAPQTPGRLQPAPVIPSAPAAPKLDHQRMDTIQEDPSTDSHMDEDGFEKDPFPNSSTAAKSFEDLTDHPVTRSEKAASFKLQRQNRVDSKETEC
Sequence of ATP-dependent translocase ABCB1 (P08183 whole entry): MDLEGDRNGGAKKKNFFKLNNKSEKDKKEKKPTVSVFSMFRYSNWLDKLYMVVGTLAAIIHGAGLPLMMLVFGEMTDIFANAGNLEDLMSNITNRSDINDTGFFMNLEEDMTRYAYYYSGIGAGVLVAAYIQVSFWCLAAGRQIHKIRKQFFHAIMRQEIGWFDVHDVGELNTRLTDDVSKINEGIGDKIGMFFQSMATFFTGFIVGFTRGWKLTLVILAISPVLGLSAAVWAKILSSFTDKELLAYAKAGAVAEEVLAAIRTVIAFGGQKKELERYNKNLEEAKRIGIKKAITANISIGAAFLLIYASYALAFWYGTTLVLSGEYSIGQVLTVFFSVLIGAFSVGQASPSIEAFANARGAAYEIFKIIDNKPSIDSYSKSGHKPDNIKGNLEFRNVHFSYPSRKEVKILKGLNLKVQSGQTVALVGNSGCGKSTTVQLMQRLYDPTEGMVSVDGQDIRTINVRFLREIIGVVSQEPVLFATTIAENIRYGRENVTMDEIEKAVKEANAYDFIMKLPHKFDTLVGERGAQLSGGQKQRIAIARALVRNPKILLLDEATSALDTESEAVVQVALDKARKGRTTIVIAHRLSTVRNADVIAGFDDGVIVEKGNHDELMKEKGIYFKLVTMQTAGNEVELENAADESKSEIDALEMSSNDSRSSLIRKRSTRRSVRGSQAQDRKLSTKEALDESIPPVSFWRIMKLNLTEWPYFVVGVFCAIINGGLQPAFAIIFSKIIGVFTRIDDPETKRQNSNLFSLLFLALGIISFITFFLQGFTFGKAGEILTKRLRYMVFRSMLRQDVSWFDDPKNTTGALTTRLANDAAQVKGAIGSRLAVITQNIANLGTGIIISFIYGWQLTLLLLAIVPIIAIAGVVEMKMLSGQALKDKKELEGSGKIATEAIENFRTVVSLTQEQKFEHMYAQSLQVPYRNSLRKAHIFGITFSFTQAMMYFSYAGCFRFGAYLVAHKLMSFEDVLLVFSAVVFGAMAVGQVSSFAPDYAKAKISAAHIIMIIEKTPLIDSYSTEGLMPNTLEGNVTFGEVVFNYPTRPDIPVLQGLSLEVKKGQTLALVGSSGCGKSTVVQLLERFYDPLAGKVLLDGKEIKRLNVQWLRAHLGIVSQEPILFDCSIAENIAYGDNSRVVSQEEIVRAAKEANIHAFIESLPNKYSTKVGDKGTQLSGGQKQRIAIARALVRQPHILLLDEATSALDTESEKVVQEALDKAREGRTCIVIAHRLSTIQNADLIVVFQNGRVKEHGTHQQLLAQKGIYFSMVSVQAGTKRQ
Sequence of Fatty acid synthase (P49327 whole entry, the tested form may be a part): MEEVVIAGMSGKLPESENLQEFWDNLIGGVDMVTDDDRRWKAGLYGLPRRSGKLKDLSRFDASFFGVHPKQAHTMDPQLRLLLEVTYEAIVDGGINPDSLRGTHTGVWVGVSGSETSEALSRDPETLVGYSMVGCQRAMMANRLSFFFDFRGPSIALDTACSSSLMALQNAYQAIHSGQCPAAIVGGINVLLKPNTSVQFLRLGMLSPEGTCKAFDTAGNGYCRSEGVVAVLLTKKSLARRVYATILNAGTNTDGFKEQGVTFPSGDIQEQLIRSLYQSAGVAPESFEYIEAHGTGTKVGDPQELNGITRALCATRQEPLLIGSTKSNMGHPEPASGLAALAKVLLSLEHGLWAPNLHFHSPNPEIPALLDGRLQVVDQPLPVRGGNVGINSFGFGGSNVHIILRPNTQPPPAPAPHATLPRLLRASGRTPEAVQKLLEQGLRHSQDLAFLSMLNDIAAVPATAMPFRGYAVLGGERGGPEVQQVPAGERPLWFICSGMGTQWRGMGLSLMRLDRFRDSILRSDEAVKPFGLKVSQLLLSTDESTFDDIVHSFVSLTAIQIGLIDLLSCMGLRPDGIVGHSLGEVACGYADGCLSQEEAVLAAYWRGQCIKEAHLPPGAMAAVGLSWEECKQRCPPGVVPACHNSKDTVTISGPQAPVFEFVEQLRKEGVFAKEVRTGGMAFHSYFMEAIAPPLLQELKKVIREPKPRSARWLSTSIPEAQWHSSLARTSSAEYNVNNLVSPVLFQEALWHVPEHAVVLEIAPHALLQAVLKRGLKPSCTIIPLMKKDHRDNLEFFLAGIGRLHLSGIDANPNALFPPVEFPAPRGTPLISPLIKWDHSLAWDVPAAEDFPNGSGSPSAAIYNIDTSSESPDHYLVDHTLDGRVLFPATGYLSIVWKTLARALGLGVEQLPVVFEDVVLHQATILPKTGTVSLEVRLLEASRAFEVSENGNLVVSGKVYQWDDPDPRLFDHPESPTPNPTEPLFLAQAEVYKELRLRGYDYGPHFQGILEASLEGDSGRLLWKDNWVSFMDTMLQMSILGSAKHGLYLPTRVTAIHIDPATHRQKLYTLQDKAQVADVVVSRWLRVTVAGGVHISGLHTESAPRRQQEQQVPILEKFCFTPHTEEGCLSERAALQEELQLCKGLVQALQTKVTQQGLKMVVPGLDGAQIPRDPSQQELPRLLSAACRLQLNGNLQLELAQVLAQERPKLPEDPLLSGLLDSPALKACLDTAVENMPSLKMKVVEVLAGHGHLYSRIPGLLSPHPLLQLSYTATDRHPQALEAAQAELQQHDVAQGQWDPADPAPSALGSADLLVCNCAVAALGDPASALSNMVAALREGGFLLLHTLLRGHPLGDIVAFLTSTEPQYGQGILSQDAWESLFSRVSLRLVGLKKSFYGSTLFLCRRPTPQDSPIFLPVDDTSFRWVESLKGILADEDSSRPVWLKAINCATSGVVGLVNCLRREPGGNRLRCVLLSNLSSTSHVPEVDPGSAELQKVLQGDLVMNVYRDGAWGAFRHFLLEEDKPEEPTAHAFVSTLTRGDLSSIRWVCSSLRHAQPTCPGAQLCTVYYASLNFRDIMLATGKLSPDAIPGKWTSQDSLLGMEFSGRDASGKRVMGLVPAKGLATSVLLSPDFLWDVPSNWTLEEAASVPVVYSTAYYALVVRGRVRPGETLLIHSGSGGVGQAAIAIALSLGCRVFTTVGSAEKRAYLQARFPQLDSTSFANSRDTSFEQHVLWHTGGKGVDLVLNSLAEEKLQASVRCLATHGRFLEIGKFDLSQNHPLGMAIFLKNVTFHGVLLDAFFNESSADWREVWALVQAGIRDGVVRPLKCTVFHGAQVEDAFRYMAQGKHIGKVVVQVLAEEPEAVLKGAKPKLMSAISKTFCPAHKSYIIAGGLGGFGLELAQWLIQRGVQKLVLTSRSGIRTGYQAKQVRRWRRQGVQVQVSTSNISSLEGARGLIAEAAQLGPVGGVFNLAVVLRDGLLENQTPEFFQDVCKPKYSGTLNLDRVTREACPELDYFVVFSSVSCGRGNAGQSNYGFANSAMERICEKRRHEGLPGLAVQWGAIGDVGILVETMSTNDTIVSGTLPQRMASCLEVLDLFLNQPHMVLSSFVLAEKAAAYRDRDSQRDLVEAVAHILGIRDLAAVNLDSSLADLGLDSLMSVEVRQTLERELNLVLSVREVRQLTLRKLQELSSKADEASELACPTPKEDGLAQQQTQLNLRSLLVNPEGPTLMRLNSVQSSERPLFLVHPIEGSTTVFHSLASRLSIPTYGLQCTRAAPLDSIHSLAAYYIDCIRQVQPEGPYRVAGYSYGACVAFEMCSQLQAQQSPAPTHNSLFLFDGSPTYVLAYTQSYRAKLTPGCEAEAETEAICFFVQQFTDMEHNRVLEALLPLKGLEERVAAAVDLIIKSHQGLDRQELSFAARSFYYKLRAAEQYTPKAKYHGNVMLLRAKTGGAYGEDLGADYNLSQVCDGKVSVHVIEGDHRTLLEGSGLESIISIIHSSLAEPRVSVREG

CN(CCN(C)c1cc(-c2ccco2)nc2cc(-c3ccccc3)nn12)C(=O)c1ccoc1
EC50 [1]: 0.0001485 µM

COC(=O)C(C(=O)OC)c1cc(NS(=O)(=O)c2c(C)cc(C)cc2C)c2ccccc2c1O
AC50 [2]: 27 µM (active)

COc1ccccc1NS(=O)(=O)c1cccc(NC(=O)Nc2cccc(Cl)c2)c1
EC50 [3]: 2.16 µM (active) | IC50 [4]: 12 µM (inactive) | IC50 [5]: > 69.5 µM (inactive) | IC50 [6]: 15.7 µM (inactive) | EC50 [7]: > 60 µM (not active) | IC50 [8]: 41.1 µM (inactive) | IC50 [9]: 12 µM (inactive)

N#C[C@H]1[C@@H](c2ccc(C#Cc3ccc(F)cc3)cc2)[C@H](CO)N1C(=O)Nc1ccc(F)cc1
AC50 [10]: 13.2 µM (active) | AC50 [11]: 19.6 µM (active) | AC50 [12]: 20.5 µM (active) | AC50 [13]: 23.5 µM (active) | AC50 [14]: 21.1 µM (active) | AC50 [15]: 14.1 µM (active) | AC50 [16]: 44.7 µM (active) | AC50 [17]: 19.2 µM (active) | AC50 [18]: 30.1 µM (active) | AC50 [19]: 14 µM (active) | AC50 (Paired box protein Pax-8): 12.3 µM (active)

CCC(=O)NC[C@@H]1[C@@H](c2ccc(C3=CCCC3)cc2)[C@@H](CO)N1C(C)=O
AC50 [20]: 9.42 µM (active)

O=C(Nc1nc(-c2ccncc2)cs1)c1cccc(S(=O)(=O)N2CCOCC2)c1
AC50 [21]: 110 µM (active) | AC50 [22]: > 52 µM (inactive)

COc1ccc(C(=O)c2cc([N+](=O)[O-])ccc2N2CCOCC2)cc1
AbsAC35_uM [23]: 60.09 µM | EC50 (BJ): < 0.104 µM (active) | AC50 (Paired box protein Pax-8): 3.21 µM (active)

CC(=O)Nc1nc(-c2ccc(S(=O)(=O)N3CCSCC3)cc2)cs1
IC50 (Fatty acid synthase): > 80 µM (inactive)

CC(C)N1CCN(Cc2nc3ccc([N+](=O)[O-])cc3c(=O)n2-c2ccccc2F)CC1
IC50 [24]: 3.13 µM (active)
